Values after ≈ are worked out from the molar mass of the structure shown.
Experiments:
[1] = Stability in alkaline aqueous conditions; assay type: physicochemical
Method: The stability of 4-N-acylfortimicin B derivatives in aqueous alkaline conditions is poor. […] Therefore, purification of these compounds under basic conditions (for example, column chromatography with Amberlite CG-50, eluting with aqueous ammonia) is not practical.
In contrast with the instability of 4-N-acylfortimicin B derivatives, 4-N-alkylfortimicin B derivatives are so stable that no decomposition occurs even in aqueous barium hydroxide solution at reflux temperature for 18 hours. Therefore, in the case of 4-N-alkylfortimicin B, any substituents can be introduced at 4-N-position of fortimicin B, even though such substituents can not be introduced as the acyl type to such position due to the aforementioned instability.

Escherichia coli NIHTC-2 = experiment: MIC, agar dilution method, pH 7.2; assay type: cell-based; details: NIHTC2; pH 7.2; Escherichia coli NIHTC-2; read-out: Minimum inhibition concentration (MIC)
Method: (§1) Measurement was carried out according to the agar dilution method, using a medium of pH 8.0, or the Japanese Antibiotic Medicament Standard, using a medium of pH 7.2 Units are in mcg/ml.

[2] = test system: Eschericihia coli GN2411-5; experiment: MIC, agar dilution method, pH 7.2; assay type: cell-based; details: Escherichia coli; pH 7.2; E. coli GN2411-5; read-out: Minimum inhibition concentration (MIC)
Method: as §1

[3] = test system: Klebsiella pneumoniae KY4274; experiment: MIC, agar dilution method, pH 7.2; assay type: cell-based; details: pH 7.2; Klebsiella pneumoniae KY4274; read-out: Minimum inhibition concentration (MIC)
Method: as §1

Proteus vulgaris JJ = experiment: MIC, agar dilution method, pH 7.2; assay type: cell-based; details: pH 7.2; Proteus vulgaris JJ; read-out: Minimum inhibition concentration (MIC)
Method: as §1

[4] = test system: Pseudomonas aeruginosa BMH# 1; experiment: MIC, agar dilution method, pH 7.2; assay type: cell-based; details: pH 7.2; Pseudomonas aeruginosa BMH# 1; read-out: Minimum inhibition concentration (MIC)
Method: as §1

[5] = test system: Pseudomonas aeruginosa UCLA 4184; experiment: MIC, agar dilution method, pH 7.2; assay type: cell-based; details: UCLA4184; pH 7.2; Pseudomonas aeruginosa UCLA 4184; read-out: Minimum inhibition concentration (MIC)
Method: as §1

[6] = test system: Salmonella enteritidis G-14; experiment: MIC, agar dilution method, pH 7.2; assay type: cell-based; details: Salmonella enterica; pH 7.2; Salmonella enteritidis G-14; read-out: Minimum inhibition concentration (MIC)
Method: as §1

Shigella sonnei ATCC9290 = experiment: MIC, agar dilution method, pH 7.2; assay type: cell-based; details: read-out: Minimum inhibition concentration (MIC)
Method: as §1

[7] = test system: Staphylococcus aureus 209-P; experiment: MIC, agar dilution method, pH 7.2; assay type: cell-based; details: pH 7.2; Staphylococcus aureus 209-P; read-out: Minimum inhibition concentration (MIC)
Method: as §1

[8] = test system: Staphylococcus aureus Smith (A); experiment: MIC, agar dilution method, pH 7.2; assay type: cell-based; details: pH 7.2; Staphylococcus aureus Smith (A); read-out: Minimum inhibition concentration (MIC)
Method: as §1

[9] = test system: Staphylococcus a ureus 226; experiment: MIC, agar dilution method, pH 7.2; assay type: cell-based, Staphylococcus aureus; details: pH 7.2; Staphylococcus aureus 226; read-out: Minimum inhibition concentration (MIC)
Method: as §1

Eschericihia coli 3100 = experiment: MIC, agar dilution method, pH 7.2; assay type: cell-based, Escherichia coli; details: Escherichia coli; pH 7.2; E. coli 3100; read-out: Minimum inhibition concentration (MIC)
Method: as §1

[10] = test system: Escherichia coli 57R/W677; experiment: MIC, agar dilution method, pH 7.2; assay type: cell-based; details: 57R/W677, pH 7.2, read-out: Minimum inhibition concentration (MIC)
Method: as §1
(§2) **1: gentamicin, producing adenylsynthetase.

Escherichia coli 76-2 = experiment: MIC, agar dilution method, pH 7.2; assay type: cell-based; details: Escherichia coli, 762; pH 7.2; E. coli 76-2; 1**: gentamicin, producing adenylsynthetase; read-out: Minimum inhibition concentration (MIC)
Method: as §1, §2

[11] = test system: Escherichia coli R12 Z-338; experiment: MIC, agar dilution method, pH 7.2; assay type: cell-based; details: R12Z338, pH 7.2, E. coli R12 Z-338, 1**: gentamicin, producing adenylsynthetase, read-out: Minimum inhibition concentration (MIC)
Method: as §1, §2

[12] = test system: Klebsiella pneumoniae 3020 Y-60; experiment: MIC, agar dilution method, pH 7.2; assay type: cell-based; details: 3020Y60; pH 7.2; Klebsiella pneumoniae 3020 Y-60; 1**: gentamicin, producing adenylsynthetase; read-out: Minimum inhibition concentration (MIC)
Method: as §1, §2

[13] = test system: Escherichia coli R18 KY8321; experiment: MIC, agar dilution method, pH 7.2; assay type: cell-based; details: R18KY8321, E. coli R18 KY8321, 2**: gentamicin, producing adenylsynthetase and neomycin phosphotransferase type II, read-out: Minimum inhibition concentration (MIC)
Method: as §1
2: gentamicin, producing adenylsynthetase and neomycin phosphotransferase

[14] = test system: Escherichia coli R17 Z343; experiment: MIC, agar dilution method, pH 7.2; assay type: cell-based; details: R17Z343, pH 7.2, E. coli R17 Z343, 3**: kanamycin, producing acetyltransferase, read-out: Minimum inhibition concentration (MIC)
Method: as §1
(§3) 3: kanamycin, producing acetyltransferase.

[15] = test system: Pseudomonas aeruginosa R9 KY8516; experiment: MIC, agar dilution method, pH 7.2; assay type: cell-based; details: R9KY8516, pH 7.2, P. aeruginosa R9 KY8516, 3**: kanamycin, producing acetyltransferase, read-out: Minimum inhibition concentration (MIC)
Method: as §1, §3

Serratia marcescens 1065 = experiment: MIC, agar dilution method, pH 7.2; assay type: cell-based; details: pH 7.2; Serratia marcescens 1065; 3**: kanamycin, producing acetyltransferase; read-out: Minimum inhibition concentration (MIC)
Method: as §1, §3

[16] = test system: Escherichia coli R19 KY8348; experiment: MIC, agar dilution method, pH 7.2; assay type: cell-based; details: R19KY8348, pH 7.2, E. coli R19 KY8348, 4**: gentamicin, producing acetyltransferase type I, read-out: Minimum inhibition concentration (MIC)
Method: as §1
(§4) 4: gentamicin, producing acetyltransferase type I.

[17] = test system: Pseudomonas aeruginosa R4 KY8511; experiment: MIC, agar dilution method, pH 7.2; assay type: cell-based; details: R4KY8511, pH 7.2, P. aeruginosa R4 KY8511, 4**: gentamicin, producing acetyltransferase type I, read-out: Minimum inhibition concentration (MIC)
Method: as §1, §4

[18] = test system: Escherichia coli R20 KY8349; experiment: MIC, agar dilution method, pH 7.2; assay type: cell-based; details: R20KY8349, pH 7.2, E. coli R20 KY8349, 5**: neomycin, producing phosphotransferase type I, read-out: Minimum inhibition concentration (MIC)
Method: as §1
5: neomycin, producing phosphotransferase type I.

[19] = test system: Pseudomonas aeruginosa R5 KY8512; experiment: MIC, agar dilution method, pH 7.2; assay type: cell-based; details: R5KY8512, pH 7.2, P. aeruginosa R5 KY8512, 6**: neomycin, producing phosphotransferase type I and type II, read-out: Minimum inhibition concentration (MIC)
Method: as §1
6: neomycin, producing phosphotransferase type I and type II.

Providencia sp 164 = experiment: MIC, agar dilution method, pH 7.2; assay type: cell-based; details: pH 7.2; Providencia sp 164; 7**: gentamicin, producing acetyltransferase type II; read-out: Minimum inhibition concentration (MIC)
Method: as §1
7: gentamicin, producing acetyltransferase type II.

[20] = test system: Staphylococcus aureus KY4279 ATCC6538P; experiment: MIC, agar dilution method, pH 8.0; assay type: cell-based; details: Staphylococcus aureus, pH 8, read-out: Minimum inhibition concentration (MIC), SA
Method: as §1
S.A.: Staphylococcus aureus KY4279 ATCC6538P

Bacillus subtilis KY4273 = experiment: MIC, agar dilution method, pH 8.0; assay type: cell-based; details: pH 8.0; Bacillus subtilis KY4273; read-out: Minimum inhibition concentration (MIC), BS
Method: as §1
B.S.: Bacillus subtilis KY4273

[21] = test system: Eschericia coli KY4271 ATCC26; experiment: MIC, agar dilution method, pH 8.0; assay type: cell-based; details: Escherichia coli, ATCC26, pH 8, read-out: Minimum inhibition concentration (MIC), EC
Method: as §1
E.C.: Eschericia coli KY4271 ATCC26

[22] = test system: Proteus vulgaris KY4277 ATCC6897; experiment: MIC, agar dilution method, pH 8.0; assay type: cell-based; details: ATCC6897; pH 8.0; Proteus vulgaris KY4277; read-out: Minimum inhibition concentration (MIC), PV
Method: as §1

[23] = test system: Shigella sonnei KY4281 ATCC9290; experiment: MIC, agar dilution method, pH 8.0; assay type: cell-based; details: ATCC9290; pH 8.0; Shigella sonnei KY4281; read-out: Minimum inhibition concentration (MIC), SS
Method: as §1

[24] = test system: Salmonella typhosa KY4278 ATCC9992; experiment: MIC, agar dilution method, pH 8.0; assay type: cell-based; details: Salmonella enterica, pH 8, read-out: Minimum inhibition concentration (MIC), ST
Method: as §1
S.T.: Salmonella typhosa KY4278 ATCC9992

[25] = test system: Klebsiella pneumoniae KY4275 ATCC10031; experiment: MIC, agar dilution method, pH 8.0; assay type: cell-based; details: ATCC10031; pH 8.0; Klebsiella pneumoniae KY4275; read-out: Minimum inhibition concentration (MIC), KP
Method: as §1
K.P.: Klebsiella pneumoniae KY4275 ATCC10031.

Question: For `CO[C@H]1[C@@H](O)[C@H](N)[C@@H](O[C@H]2O[C@H]([C@H](C)N)CC[C@H]2N)[C@H](O)[C@@H]1N(C)C(=O)CCCCN` [Compound 11, 4-N-(δ-amino-n-valeryl)fortimicin B], which “Stability in alkali condition (MIC medium)” value ([1]; pH 8.0) is on record?
Answer: unstable

Question: And the “Stability in aqueous solution” value ([1]; pH 10, room temperature, within one hour)?
Answer: almost completely decomposed

Question: What does the source list for `CO[C@H]1[C@@H](O)[C@H](N)[C@@H](O[C@H]2O[C@H]([C@H](C)N)CC[C@H]2N)[C@H](O)[C@@H]1N(C)C(=O)CO` [Compound 4, 4-N-glycolylfortimicin B]?
Answer: MIC (Escherichia coli NIHTC-2): 12.5 µg/mL (≈ 30.8 µM); MIC [2]: 12.5 µg/mL (≈ 30.8 µM); MIC [3]: 25 µg/mL (≈ 61.5 µM); MIC (Proteus vulgaris JJ): 25 µg/mL (≈ 61.5 µM); MIC [4]: 50 µg/mL (≈ 123 µM); MIC [5]: 100 µg/mL (≈ 246 µM); MIC [6]: 25 µg/mL (≈ 61.5 µM); MIC (Shigella sonnei ATCC9290): 25 µg/mL (≈ 61.5 µM); MIC [7]: 3.12 µg/mL (≈ 7.68 µM); MIC [8]: 3.12 µg/mL (≈ 7.68 µM); MIC [9]: 12.5 µg/mL (≈ 30.8 µM); MIC (Eschericihia coli 3100): 12.5 µg/mL (≈ 30.8 µM); MIC [10]: 25 µg/mL (≈ 61.5 µM); MIC (Escherichia coli 76-2): 6.25 µg/mL (≈ 15.4 µM); MIC [11]: 25 µg/mL (≈ 61.5 µM); MIC [12]: > 100 µg/mL; MIC [13]: 6.25 µg/mL (≈ 15.4 µM); MIC [14]: 6.25 µg/mL (≈ 15.4 µM); MIC [15]: 100 µg/mL (≈ 246 µM); MIC (Serratia marcescens 1065): 50 µg/mL (≈ 123 µM); MIC [16]: > 100 µg/mL; MIC [17]: > 100 µg/mL; MIC [18]: 12.5 µg/mL (≈ 30.8 µM); MIC [19]: 50 µg/mL (≈ 123 µM); MIC (Providencia sp 164): 100 µg/mL (≈ 246 µM); MIC [20]: 1.25 µg/mL (≈ 3.08 µM); MIC (Bacillus subtilis KY4273): 5 µg/mL (≈ 12.3 µM); MIC [21]: 1.25 µg/mL (≈ 3.08 µM); MIC [22]: 2.5 µg/mL (≈ 6.15 µM); MIC [23]: 5 µg/mL (≈ 12.3 µM); MIC [24]: 1.25 µg/mL (≈ 3.08 µM); MIC [25]: 5 µg/mL (≈ 12.3 µM)

Reference: US4220755A, “Fortimicin B derivatives and process for production thereof” (Abbott Laboratories, priority 1976, dated 1980)
